Marks after values point to notes of the source that are not given here.
Legend:
[1] = system: ovarian tumor xenograft (SK-OV3); experiment: Ovarian tumor xenograft model; type: in vivo, mice; conditions: oral, 5ON/2OFF
Text: The efficacy of RX-5902 in human cancer xenograft mouse models is examined. Female nude mice (nu/nu, Harlan or CRL: NU(NCr)-Foxn1^nu, Charles River), 9-10 weeks old, with a body weight (BW) range of 15-30 g on day 1 of the study, are fed ad libitum water (reverse osmosis, 1 ppm C1), and NIH 31 Modified and Irradiated Lab Diet® consisting of 18.0% crude protein, 5.0% crude fat, and 5.0% crude fiber. The mice are housed on irradiated Enrich-o'Cobs™ Laboratory Animal Bedding in static microisolators on a 12-hour light cycle at 20-22° C. (68-72° F.) and 40-60% humidity. […]
(§1) The cells are harvested during exponential growth and re-suspended with phosphate buffered saline. Each test animal receives a subcutaneous (s.c.) injection of 5×10^6 tumor cells into the right flank and tumor growth is monitored as the average tumor size approaches the target range of 80-300 mm^3. […] Tumors and body weights are measured regularly until the study is terminated.
(§2) Tumors are measured in two dimensions using calipers, and volume is calculated using the formula: […]
Treatment efficacy is determined using data from Day 15. The MTV (n), the median tumor volume for the number of animals, n, on Day 15, is determined for each group. […]
Animals are monitored individually for tumor growth until Day 71. […] The time to endpoint (TTE) for each mouse is calculated with the following equation: […]

[2] = system: human non-small cell lung tumor xenografts (A549); experiment: Non-small cell lung cancer xenograft model; type: in vivo, mice; conditions: oral
Text: The efficacy of RX-5902 in human cancer xenograft mouse models is examined. Female nude mice (nu/nu, Harlan or CRL: NU(NCr)-Foxn1^nu, Charles River), 9-10 weeks old, with a body weight (BW) range of 15-30 g on day 1 of the study, are fed ad libitum water (reverse osmosis, 1 ppm C1), and NIH 31 Modified and Irradiated Lab Diet® consisting of 18.0% crude protein, 5.0% crude fat, and 5.0% crude fiber. The mice are housed on irradiated Enrich-o'Cobs™ Laboratory Animal Bedding in static microisolators on a 12-hour light cycle at 20-22° C. (68-72° F.) and 40-60% humidity. The study complies with the recommendations of the Guide for, Care and Use of Laboratory Animals with respect to restraint, husbandry, surgical procedures, feed and fluid regulation, and veterinary care.
Various human tumor cell lines (e.g., HCT116, HT29, H460, H69, Caki-1, CaSki, MiaPaca2, BxPC3 and Colo 205 cells [ATCC, Manassas, Va., USA]) are cultured according to ATCC's instruction. […]
as §1, §2
Treatment efficacy is determined using data from Day 15. The MTV (n), the median tumor volume for the number of animals, n, on Day 15, is determined for each group. Percent tumor growth inhibition (% TGI) is defined as the difference between the MTV of the designated control group (vehicle administration) and the MTV of the drug-treated group, expressed as a percentage of the MTV of the control group: % TGI=[1−(MTVdrug treated/MTVcontrol)]×100 The data set for TGI analysis includes all animals in a group, except those that die due to treatment-related (TR) or non-treatment-related (NTR) causes. […]
Animals are monitored individually for tumor growth until Day 71. […]

[3] = system: SK-MEL-28 cells; experiment: Western blot of cyclin D1, c-Myc and p-c-Jun; type: cell-based
Procedure: (§3) MDA-MB-231, SK-MEL-28, and WI-38 cells were obtained from ATCC (Manassas, Va., USA) and were cultured according to the vendor's instructions. Anti-p68 antibody and antiY593-p68 antibody were purchased from Cell Signaling (Danvers, Mass.) and Abcam (Cambridge, Mass.), respectively. Antibodies against β-actin, cyclin D1, p-c-Jun and c-Myc, were purchased from Santa Cruz (Dallas, Tex.). Anti-phospho-tyrosine antibody and HRP conjugated GAPDH antibody were obtained from Cell Signaling (Danvers, Mass.). Recombinant β-catenin and p68 protein were purchased from Creative Biomart (Shirley, N.Y.) and Origene (Rockville, Md.), respectively.
(§4) RX-5902 was dissolved in DMSO to prepare a stock solution of 2 mM. The stock solution was stored at −20° C. and diluted with medium to prepare working concentrations.
(§5) Protein mix or cell lysates were separated by SDS-PAGE and transferred to PVDF membrane. The membrane was blocked by blocking buffer (1×TBST containing 5% BSA) at room temperature for 1 hour. After a brief wash, the membrane was incubated with primary antibody in blocking buffer at 4° C. overnight. After incubation in primary antibody, the membrane was washed with 1×TBST three times and subsequently incubated with HRP conjugated secondary antibody in blocking buffer at room temperature for 1 hour. The membrane was again washed three times and visualized by ECL system (Thermo Scientific, Rockford, Ill.).
(§6) Since RX-5902 directly binds to Y593 phospho-p68, it was hypothesized that treatment of cells with RX-5902 would interfere with the phospho-p68/β-catenin interaction and consequently affect the expression of several growth associated genes, including p-c-Jun, c-Myc and cyclin D, which are regulated by phospho-p68/β-catenin interaction. Thus, cyclin D1 and c-Myc expression, as well as phosphorylation of c-Jun in cells treated with RX-5902, were analyzed. Cancer cell lines, SK-MEL-28 and MDA-MB-231, and normal fetal lung fibroblasts, WI-38, were used.

[4] = system: WI-38 cells; experiment: Western blot of cyclin D1, c-Myc and p-c-Jun; type: cell-based; conditions: even at 70 nM
Procedure: as §3, §4, §5, §6

In the case of `COc1cc(OC)cc(N2CCN(C(=O)Nc3nc4cc(F)ccc4nc3OC)CC2)c1` [RX-5902, 4-(3,5-dimethoxyphenyl)-N-(7-fluoro-3-methoxyquinoxalin-2-yl)piperazine-1-carboxamide], the TGD % ([1]; 40 mg/kg) is reported as 6%^, the TGD % ([1]; 70 mg/kg) is reported as 49%^ and the TGI % ([2]; 160 mg/kg QWK) is reported as 30%*. The TGI % ([2]; 320 mg/kg QWK) was 26%*, the TGI % ([2]; 600 mg/kg QWK) was 26%* and the “cyclin D1, c-Myc and p-c-Jun protein levels” value ([3]; 20 nM) was “did not change protein levels”. For the same compound, the “cyclin D1, c-Myc expression and c-Jun phosphorylation” value ([3]; 70 nM) was “decrease in expression of both cyclin D1 and c-Myc and a decrease in c-Jun phosphorylation” and the “cyclin D1, c-Myc expression and c-Jun phosphorylation” value [4] was “did not result in any significant change”.

Source: patent US9969698B2, “Quinoxalinyl-piperazinamide methods of use” (REXAHN PHARMACEUTICALS, INC., priority 2015, dated 2018)
